From ChEMBL document CHEMBL1141124 (J Med Chem, 2005)
Starred links: 1 amine or outer side, 2 acyl side, 3 side chain; linkers in the order of their positions; H or OH if unused. Non-standard residues stand in square brackets, D forms with d. Residues, ends and D or L forms follow the SMILES beside them. X2 = O=C(c1cc(CN[*:1])cc(Cc2ccc(O)cc2)c1)[*:2]; X1 = O=C(c1cc(Cc2ccc(O)cc2)cc(N[*:1])c1)[*:2]; Phe(4-NH2) = Nc1ccc(C[C@H](N)C(=O)O)cc1

Molecular target: T1, Type-1 angiotensin II receptor B (Rattus norvegicus, UniProt P29089)
T1 sequence (P29089 whole entry): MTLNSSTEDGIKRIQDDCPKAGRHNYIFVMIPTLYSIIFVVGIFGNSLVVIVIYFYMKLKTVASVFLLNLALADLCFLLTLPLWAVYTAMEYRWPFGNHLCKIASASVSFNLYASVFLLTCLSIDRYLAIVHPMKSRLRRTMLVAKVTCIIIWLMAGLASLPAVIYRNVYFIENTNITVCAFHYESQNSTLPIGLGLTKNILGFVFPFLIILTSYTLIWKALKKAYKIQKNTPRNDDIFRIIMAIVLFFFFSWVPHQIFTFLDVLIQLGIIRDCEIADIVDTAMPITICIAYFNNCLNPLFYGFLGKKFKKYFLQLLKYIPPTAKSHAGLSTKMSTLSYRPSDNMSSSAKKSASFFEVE
Experiment: Binding affinity for angiotensin II receptor, type 1 in rat liver membrane using [125I]-Ang II as radioligand, in pH 7.4 Tris-HCl buffer for 2 hr at 25 degree C
Type: cell membranes

Row | Ki | SMILES
1 | 0.00016 µM | CC[C@H](C)[C@H](NC(=O)[C@H](Cc1ccc(O)cc1)NC(=O)[C@@H](NC(=O)[C@H](CCCNC(=N)N)NC(=O)CNC)C(C)C)C(=O)N[C@@H](Cc1cnc[nH]1)C(=O)N1CCC[C@H]1C(=O)N[C@@H](Cc1ccccc1)C(=O)O
2 | > 10 µM | CC[C@H](C)[C@H](NC(=O)[C@H](Cc1ccc(O)cc1)NC(=O)[C@@H](NC(=O)[C@H](CCCN=C(N)N)NC(=O)[C@@H](N)CC(=O)O)C(C)C)C(=O)N[C@@H](Cc1ccc(N)cc1)C(=O)N1CCC[C@H]1C(=O)N[C@@H](Cc1ccccc1)C(=O)O (H-DRVYI[Phe(4-NH2)]PF-OH)
3 | 0.0303 µM | CC(C)[C@H](NC(=O)[C@H](CCCN=C(N)N)NC(=O)[C@@H](N)CC(=O)O)C(=O)Nc1cc(Cc2ccc(O)cc2)cc(C(=O)N[C@@H](Cc2c[nH]cn2)C(=O)N2CCC[C@H]2C(=O)N[C@@H](Cc2ccccc2)C(=O)O)c1 (H-DRV[X1]HPF-OH)
4 | > 10 µM | CC(C)[C@H](NC(=O)[C@H](CCCN=C(N)N)NC(=O)[C@@H](N)CC(=O)O)C(=O)NCc1cc(Cc2ccc(O)cc2)cc(C(=O)N[C@@H](Cc2c[nH]cn2)C(=O)N2CCC[C@H]2C(=O)N[C@@H](Cc2ccccc2)C(=O)O)c1 (H-DRV[X2]HPF-OH)
5 | > 10 µM | N=C(N)NCCC[C@H](NC(=O)[C@@H](N)CC(=O)O)C(=O)Nc1cc(Cc2ccc(O)cc2)cc(C(=O)N[C@@H](Cc2cnc[nH]2)C(=O)N2CCC[C@H]2C(=O)N[C@@H](Cc2ccccc2)C(=O)O)c1 (H-DR[X1]HPF-OH)
6 | > 10 µM | NC(N)=NCCC[C@H](NC(=O)[C@@H](N)CC(=O)O)C(=O)NCc1cc(Cc2ccc(O)cc2)cc(C(=O)N[C@@H](Cc2c[nH]cn2)C(=O)N2CCC[C@H]2C(=O)N[C@@H](Cc2ccccc2)C(=O)O)c1 (H-DR[X2]HPF-OH)
7 | > 10 µM | CC[C@H](C)[C@H](NC(=O)c1cc(CNC(=O)[C@H](CCCN=C(N)N)NC(=O)[C@@H](N)CC(=O)O)cc(Cc2ccc(O)cc2)c1)C(=O)N[C@@H](Cc1c[nH]cn1)C(=O)N1CCC[C@H]1C(=O)N[C@@H](Cc1ccccc1)C(=O)O (H-DR[X2]IHPF-OH)
